Columns and labels:
mitosis cell cycle = tested on: mitosis cell cycle; design: method as in Taylor, 1965; conditions: concentration of 50 nM; ref Taylor, 1965; cited from earlier work
A375 (melanoma) = assay: Sulforhodamine B (SRB) assay, A375; format: cell-based; conditions: Homo sapiens; for IC50: A-375, 48 h, read-out: IC50 (µM) A375
Description: (§1) Roswell Park Memorial Institute (RPMI)-1640 medium, Dulbecco’s modified eagle medium high glucose (DMEM; Gibco) supplemented with 10% Fetal Bovine Serum (FBS; Gibco, and 1% antibiotic-antimycotic (Gibco; Anti-Anti 100x), phosphate-buffered saline (PBS; Gibco), 0.25% trypsin (Gibco), sodium pyruvate (Sigma-Aldrich), HEPES (Gibco). Human cancer cell lines A549 (lung carcinoma), MCF-7 (breast carcinoma), MDAMB-231 (breast carcinoma), A375 (melanoma), and normal human embryonic kidney cells (HEK-293) were taken from Dr. Sheikh Tasduq Abdullah and Dr. Boobalan Gopu (CSIR-IIIM).
(§2) Their activity was tested against human cancer cell lines A549 (lung carcinoma), MCF-7 (breast carcinoma), MDAMB-231 (breast carcinoma), and A375 (melanoma). The selectivity index (SI) was calculated against normal human embryonic kidney cells (HEK-293) to determine cytotoxic selectivity. The cells (7 × 10^3 cells/well) were seeded on 96 well plates, followed by overnight incubation. Multiple concentrations (50 µM, 20 µM, 10 µM, 5 µM, and 1 µM) of compounds were used to treat the cells, except for control wells that contained only cells with media. After 48 h of incubation, the cells attached to wells were fixed with 50 µL of chilled 50% TCA, and the plate was kept at 4°C for 1 h, as described previously ([Malik et al., 2023]; [Kumar et al., 2024]). The plate was washed (3–4 times) with distilled water (250 µL/well) and air-dried for 24 h. The next day, 100 µL of 0.4% SRB dye was added to each well, and the cells were incubated at room temperature for 1 h. The plate contents were discarded and washed 3 times with 1% glacial acetic acid (250 µL/well), followed by one last wash with distilled water and air drying for another 24 h. Subsequently, 100 µL of Tris base (10 mM, pH 10.5) was added to each well to dissolve the dye bound to fixed cells. The dissolved dye indicating growth inhibition was quantified by calculating optical density at 540 nm via microplate reader (Tecan infinite M200PRO, Switzerland). The IC50 values were calculated using GraphPad Prism Software Version 5.0. A favorable Selectivity Index (SI) is the most relevant parameter to detect anti-cancer potential in vitro as it indicates drug safety against cancer cells versus normal cells, efficacy of the drug, and selectivity. The selectivity index is calculated by using the formula. Selective Index=IC50 in Normal cells/IC50 in Cancerous cell lines

MCF-7 (breast carcinoma) = assay: Sulforhodamine B (SRB) assay, MCF-7; format: cell-based; conditions: Homo sapiens, MCF7, 48 h, read-out: IC50 (µM) MCF-7
Description: as §1, §2

[1] = tested on: MDA-MB 231 (breast carcinoma); assay: Sulforhodamine B (SRB) assay, MDA-MB 231; format: cell-based; conditions: Homo sapiens, MDA-MB-231, 48 h, read-out: IC50 (µM) MDA-MB 231
Description: as §1, §2

A549 (lung carcinoma) = assay: Sulforhodamine B (SRB) assay, A549; format: cell-based; conditions: Homo sapiens, A549, 48 h, read-out: IC50 (µM) A549
Description: as §1, §2

[2] = tested on: normal human embryonic kidney cells (HEK-293); assay: Sulforhodamine B (SRB) assay, normal cells HEK-293; format: cell-based; conditions: HEK293, 48 h, normal cell line, mean ± SD (n = 3)
Description: as §1, §2

A375 cells [3] = assay: Colony formation assay; format: cell-based, human
Procedure: A colony formation assay was performed to assess the ability of 3g to inhibit the reproductive and colony forming ability of A375 cells. The cells were seeded into a 6-well plate with a 1 × 10^3 cells/well density. Next day, the cells were treated with multiple concentrations of 3g, such as 30 µM, 20 µM, 10 µM and 1 µM, in fresh media for 48 h. The media was changed on alternate days till day 10, till untreated (negative control) became confluent. On day 10, the cells were washed with PBS, and colonies were observed under a microscope. The cells/colonies were fixed with 100% methanol for 20 min at 4°C and stained with 0.5% solution of crystal violet for 30 min at room temperature, as described previously ([Kumar et al., 2024]). Subsequently, the dye was removed from plates, and excess dye was rinsed by washing it with distilled water (3–5 times), followed by air drying. The colonies were counted using ImageJ software, and photographs were taken with a digital camera. The percentage of colonies formed was calculated using the formula mentioned below. Colony formation rate (%)=Number of colonies in treatment group/Number of colonies in control group×100

A375 cells [4] = assay: Wound healing (cell scratch) assay; format: cell-based, human
Procedure: Cell scratch assay, also known as wound healing assay, was performed to evaluate the impact of 3g on migration of A375 cells. The cells were seeded into the 6-well plate with […] density. The next day, in fresh media, a horizontal scratch was administered in the 90% confluent monolayer using a sterile 200 µL tip, as described previously, with slight modification ([Kumar et al., 2024]). The cells were incubated for 48 h with multiple concentrations of 3g such as 30 µM, 20 µM, 10 µM and 1 µM. Wound healing was observed using a Digital Inverted Fluorescence Microscope (Life Technologies EVOS FLc). The percentage of wound healing was calculated as. Wound Closure (%)=[…]

A375 = assay: cells; format: cell-based; conditions: Homo sapiens, A-375; MTT assay, 48 h
Procedure: (§3) Cell viability was assessed using the MTT assay, as outlined in previous studies ([Majeed et al., 2014]; [Amin et al., 2025]). Briefly, A549, A375, MCF-7 and MDA-MB231 cells (10 × 10^3 cells/well) were seeded in 96-well plates and incubated for 24 h at 37°C in a 5% CO2 atmosphere. After this incubation, the cells were treated with test compounds for another 48 h. At 44th hour of treatment, the cells were incubated with MTT (2.5 mg/mL) for additional 4 h. At 48th hour, DMSO was added (100 µL/well), to dissolve formazan crystals. Absorbance was measured at 570 nm. Cell viability was calculated relative to untreated controls. IC50 values were determined from independent triplicate experiments using GraphPad™ Prism 8.0 software. […]

A549 = assay: cells; format: cell-based; conditions: Homo sapiens, MTT assay, 48 h
Procedure: as §3

MCF-7 = assay: cells; format: cell-based; conditions: Homo sapiens, MCF7; MTT assay, 48 h
Procedure: as §3

MDA-MB 231 = assay: cells; format: cell-based; conditions: Homo sapiens, MTT assay, 48 h
Procedure: as §3

Compound | IC50 (A375 (melanoma)) [µM] | IC50 (MCF-7 (breast carcinoma)) [µM] | IC50 [1] [µM] | IC50 (A549 (lung carcinoma)) [µM] | IC50 [2] [µM] | also measured
COc1cc2c(c(OC)c1OC)-c1ccc(OC)c(=O)cc1[C@@H](NC(C)=O)CC2 [Colchicine] | – | – | – | – | – | block of mitotic cells (mitosis cell cycle): blocks almost all the prophase, metaphase, and anaphase cells
CCOC(=O)C1=C(C)NC(=S)NC1c1c2c(c(OC)c(OC)c1OC)-c1ccc(OC)c(=O)cc1[C@H](NC(C)=O)CC2 (some centres unmarked) [Compound 3a] | > 50 | 40.6 ± 0.91 | > 50 | > 50 | 29.66 ± 0.07 | –
CCOC(=O)C1=C(C)NC(=N)NC1c1c2c(c(OC)c(OC)c1OC)-c1ccc(OC)c(=O)cc1[C@H](NC(C)=O)CC2 (stereo partly drawn) [Compound 3b, Ethyl 4-((R)-7-acetamido-1,2,3,10-tetramethoxy-9-oxo-5,6,7,9-tetrahydrobenzo [a]heptalen-4-yl)-2-imino-6-methyl-1,2,3,4-tetrahydropyrimidine-5-carboxylate] | > 50 | 44.7 ± 0.64 | > 50 | > 50 | 38.3 ± 1.36 | –
COc1c(OC)c2c(c(C3NC(=O)NC(C)=C3C(=O)Oc3ccccc3)c1OC)CC[C@@H](NC(C)=O)c1cc(=O)c(OC)ccc1-2 (stereo partly drawn) [Compound 3c, phenyl 4-((R)-7-acetamido-1,2,3,10-tetramethoxy-9-oxo-5,6,7,9-tetrahydrobenzo [a]heptalen-4-yl)-6-methyl-2-oxo-1,2,3,4-tetrahydropyrimidine-5-carboxylate] | > 50 | 44.8 ± 0.68 | > 50 | > 50 | 35.6 ± 2.97 | –
CCOC(=O)C1=C(C(Cl)(Cl)Cl)NC(=O)NC1c1c2c(c(OC)c(OC)c1OC)-c1ccc(OC)c(=O)cc1[C@H](NC(C)=O)CC2 (stereo partly drawn) [Compound 3d, Ethyl 4-((R)-7-acetamido-1,2,3,10-tetramethoxy-9-oxo-5,6,7,9-tetrahydrobenzo [a]heptalen-4-yl)-2-oxo-6-(trichloromethyl)-1,2,3,4-tetrahydropyrimidine-5-carboxylate] | > 50 | 43.79 ± 0.33 | > 50 | > 50 | 36.1 ± 1.79 | –
CCOC(=O)C1=C(c2cc(F)c(Cl)nc2Cl)NC(=O)NC1c1c2c(c(OC)c(OC)c1OC)-c1ccc(OC)c(=O)cc1[C@H](NC(C)=O)CC2 (stereo partly drawn) [Compound 3e, Ethyl 4-((R)-7-acetamido-1,2,3,10-tetramethoxy-9-oxo-5,6,7,9-tetrahydrobenzo [a]heptalen-4-yl)-6-(2,6-dichloro-5-fluoropyridin-3-yl)-2-oxo-1,2,3,4-tetrahydropyrimidine-5-carboxylate] | > 50 | 45.1 ± 0.73 | > 50 | > 50 | 40.3 ± 1.71 | –
CCOC(=O)C1=C(C(F)(F)C(F)(F)F)NC(=O)NC1c1c2c(c(OC)c(OC)c1OC)-c1ccc(OC)c(=O)cc1[C@H](NC(C)=O)CC2 (stereo partly drawn) [Compound 3f, Ethyl 4-((R)-7-acetamido-1,2,3,10-tetramethoxy-9-oxo-5,6,7,9-tetrahydrobenzo [a]heptalen-4-yl)-2-oxo-6-(perfluoroethyl)-1,2,3,4-tetrahydropyrimidine-5-carboxylate] | 28.3 ± 2.19 | 26.4 ± 2.79 | 46.6 ± 0.86 | > 50 | 17.8 ± 1.3 | –
CCOC(=O)C1=C(C(F)(F)C(F)(F)F)NC(=O)NC1c1c2c(c(OC)c(OC)c1OC)-c1ccc(OC)c(=O)cc1[C@@H](NC(C)=O)CC2 (stereo partly drawn) [Compound 3g, Ethyl 4-((S)-7-acetamido-1,2,3,10-tetramethoxy-9-oxo-5,6,7,9-tetrahydrobenzo [a]heptalen-4-yl)-2-oxo-6-(perfluoroethyl)-1,2,3,4-tetrahydropyrimidine-5-carboxylate] | 10.3 ± 0.56 | 15.7 ± 0.39 | 24.9 ± 2.7 | > 50 | 15.8 ± 0.81 | inhibition at 20 µM (A375 (melanoma); A-375, read-out: growth inhibition): 60%; percentage of colony growth formation (A375 cells [3]; 20 µM, 48 h treatment, A375 cells, untreated control 100%): 37.5%; inhibition of colony formation (A375 cells [3]; melanoma cells (abstract)): up to 62.5%; percentage of wound closure (A375 cells [4]; 20 µM, 48 h, A375 cells, untreated control 84%): 69%; reduction of migration potential (A375 cells [4]; melanoma cells (abstract)): 69%
CCOC(=O)C1=C(OCC)NC(=O)NC1c1c2c(c(OC)c(OC)c1OC)-c1ccc(OC)c(=O)cc1[C@H](NC(C)=O)CC2 (stereo partly drawn) [Compound 3h, ethyl 4-((R)-7-acetamido-1,2,3,10-tetramethoxy-9-oxo-5,6,7,9-tetrahydrobenzo [a]heptalen-4-yl)-6-ethoxy-2-oxo-1,2,3,4-tetrahydropyrimidine-5-carboxylate] | 35.2 ± 2.79 | 49.9 ± 2.72 | > 50 | > 50 | 26.6 ± 2.65 | –
COC1=C(C(=O)C2CC2)C(c2c3c(c(OC)c(OC)c2OC)-c2ccc(OC)c(=O)cc2[C@H](NC(C)=O)CC3)NC(=O)N1 (stereo partly drawn) [Compound 3i, N-((7R)-4-(5-(cyclopropanecarbonyl)-6-methoxy-2-oxo-1,2,3,4-tetrahydropyrimidin-4-yl)-1,2,3,10-tetramethoxy-9-oxo-5,6,7,9-tetrahydrobenzo [a]heptalen-7-yl) acetamide] | > 50 | > 50 | – | > 50 | 39.5 ± 1.36 | –
COC1=C(C(=O)C2CC2)C(c2c3c(c(OC)c(OC)c2OC)-c2ccc(OC)c(=O)cc2[C@@H](NC(C)=O)CC3)NC(=O)N1 (stereo partly drawn) [Compound 3j, N-((7S)-4-(5-(cyclopropanecarbonyl)-6-methoxy-2-oxo-1,2,3,4-tetrahydropyrimidin-4-yl)-1,2,3,10-tetramethoxy-9-oxo-5,6,7,9-tetrahydrobenzo [a]heptalen-7-yl) acetamide] | > 50 | > 50 | > 50 | > 50 | 39 ± 0.79 | –
CC(=O)O[C@H]1C(=O)[C@@]2(C)[C@H]([C@H](OC(=O)c3ccccc3)[C@]3(O)C[C@H](OC(=O)[C@H](O)[C@@H](NC(=O)c4ccccc4)c4ccccc4)C(C)=C1C3(C)C)[C@]1(OC(C)=O)CO[C@@H]1C[C@@H]2O [Paclitaxel] | – | – | – | – | – | IC50 (A375): 0.017 ± 0.028 µM; IC50 (A549): 0.028 ± 0.008 µM; IC50 (MCF-7): 0.014 ± 0.001 µM; IC50 (MDA-MB 231): 0.02 ± 0.002 µM

Reference: PMC12246756 (Frontiers in Pharmacology, 2025)
